Data published in patent publication US9011853B2, “B7-H4 fusion proteins and methods of use thereof” (Amplimmune, Inc., priority 2009, dated 2015).
Where “and” joins values, the source holds several entries; their conditions need not be identical. Equal entries are not always repeated.

Tested on: serum levels of 58 analytes
Assay: Serum biomarker analysis, quantitative immunoassay multi-analyte profiling (Rules-Based Medicine RodentMAP v2.9), AA#80
Type: in vivo, mouse
Conditions: serum
Description: In AA#80, serum samples were collected on Day 27, Day 34, Day 41 and Day 55 via the submandibular vein. Approximately 200 μL of blood per mouse was collected in Microtainer® serum separator tubes. Serum was removed following centrifugation and stored at <−65° C. until analysis.
Selected serum samples were sent to Rules-Based Medicine (Austin, Tex.) for quantitative immunoassay multi-analyte profiling of serum samples, with the goal of identifying biomarkers that could be used to monitor disease progression and response to B7-H4-Ig treatment. Day 27, Day 34, and Day 41 sera from the three representative mice in the B7-H4-Ig group (tag #3332, 3334, and 3338) and three representative mice in the Synagis® group (tag #3324, 3329, and 3330) were analyzed for levels of 58 analytes using the RodentMAP v2.9 Testing Service.
Data from the Rules-Based Medicine analysis was analyzed using Microsoft Excel and GraphPad Prism software. T-tests were performed to compare the levels of each analyte in the B7-H4-Ig versus Synagis® treated samples. No correction was made for multiple comparisons. Additionally, correlation coefficients were calculated for each analyte versus disease score.

Human B7-H4-Ig: human B7-H4 extracellular domain fused to hinge, CH2 and CH3 regions of human immunoglobulin Cγ1 chain; representative SEQ ID NOs:114-137
MIP-1beta (Macrophage Inflammatory Protein-1beta) (Day 27, LDD 77.65): 110 pg/mL and 115 pg/mL and 173 pg/mL
Lymphotactin (Day 27, LDD 85.48): 164 pg/mL and 169 pg/mL and 194 pg/mL
VWF (Von Willebrand Factor) (Day 27, LDD 98.6): 143 ng/mL and 123 ng/mL and 107 ng/mL
M-CSF (Macrophage-Colony Stimulating Factor) (Day 34, LDD 0.01795): 5.79 ng/mL and 6.35 ng/mL and 6.51 ng/mL
MIP-1gamma (Macrophage Inflammatory Protein-1gamma) (Day 34, LDD 0.0736): 50.4 ng/mL and 30.1 ng/mL and 41 ng/mL
TNF-alpha (Tumor Necrosis Factor-alpha) (Day 34, LDD 0.137): <low>
IL-5 (Interleukin-5) (Day 34, LDD 0.194): 0.474 ng/mL and 0.264 ng/mL and 0.403 ng/mL
MIP-1alpha (Macrophage Inflammatory Protein-1alpha) (Day 34, LDD 0.2255): 3.03 ng/mL and 2.88 ng/mL and 3.08 ng/mL
MIP-3beta (Macrophage Inflammatory Protein-3beta) (Day 34, LDD 0.465): 2.79 ng/mL and 2.49 ng/mL and 3.11 ng/mL
Tissue Factor (Day 34, LDD 0.5175): 10.8 ng/mL and 10.4 ng/mL and 13.3 ng/mL
MPO (Myeloperoxidase) (Day 34, LDD 0.95): 247 ng/mL and 254 ng/mL and 242 ng/mL
TPO (Thromboproletin) (Day 34, LDD 2.66): 43.4 ng/mL and 30.4 ng/mL and 36.1 ng/mL
SAP (Setrum Amtyloid P) (Day 34, LDD 5.4): 51.8 µg/mL and 31 µg/mL and 42.6 µg/mL
MIP-2 (Macrophage Inflammatory Protein-2) (Day 34, LDD 7.174): 36.8 pg/mL and 26.6 pg/mL and 22.2 pg/mL
MMP-9 (Matrix Metalloproteinase-9) (Day 34, LDD 10): 503 ng/mL and 334 ng/mL and 255 ng/mL
MCP-1 (Monocyte Chemoattractant Protein-1) (Day 34, LDD 16.924): 84.6 pg/mL and 56 pg/mL and 101 pg/mL
VCAM-1 (Vescular Cell Adhesion Molecule-1) (Day 34, LDD 19): 1860 ng/mL and 2190 ng/mL and 2470 ng/mL
MDC (Macrophage-Derived Chemokine) (Day 34, LDD 21.85): 1390 pg/mL and 1120 pg/mL and 1360 pg/mL
VEGF (Vescular Endotheial Cell Growth Factor) (Day 34, LDD 38.2): 160 pg/mL and 141 pg/mL and 155 pg/mL
IP-10 (Inducible Protein-10) (Day 34, LDD 40.28): 81 pg/mL and 59 pg/mL and 54.2 pg/mL
LIF (Leukemia Infabitory Factor) (Day 34, LDD 43.6): 1430 pg/mL and 1500 pg/mL and 1480 pg/mL
MCP-5 (Monocyte Chemoattractant Protein-5) (Day 34, LDD 46.38): 57.8 pg/mL and 29.2 pg/mL and 46.7 pg/mL
SCF (Stem Cell Factor) (Day 34, LDD 75.17): 182 pg/mL and 220 pg/mL and 217 pg/mL
Lymphotactin (Day 34, LDD 85.48): 196 pg/mL and 162 pg/mL and 197 pg/mL
VWF (Von Willebrand Factor) (Day 34, LDD 98.6): 101 ng/mL and 137 ng/mL and 135 ng/mL
M-CSF (Macrophage-Colony Stimulating Factor) (Day 41, LDD 0.01795): 5.02 ng/mL and 5.67 ng/mL and 6.07 ng/mL
MIP-1gamma (Macrophage Inflammatory Protein-1gamma) (Day 41, LDD 0.0736): 42.8 ng/mL and 32.7 ng/mL and 42.5 ng/mL
OSM (Oncostatin M) (Day 41, LDD 0.13): <low>
TNF-alpha (Tumor Necrosis Factor-alpha) (Day 41, LDD 0.137): <low>
IL-5 (Interleukin-5) (Day 41, LDD 0.194): 0.474 ng/mL and 0.254 ng/mL and 0.264 ng/mL
MIP-1alpha (Macrophage Inflammatory Protein-1alpha) (Day 41, LDD 0.2255): 3.13 ng/mL and 2.93 ng/mL and 3.03 ng/mL
IL-7 (Interleukin-7) (Day 41, LDD 0.309): <low>
MIP-3beta (Macrophage Inflammatory Protein-3beta) (Day 41, LDD 0.465): 3.05 ng/mL and 3.03 ng/mL and 2.87 ng/mL
Tissue Factor (Day 41, LDD 0.5175): 10.8 ng/mL and 9.17 ng/mL and 9.37 ng/mL
MPO (Myeloperoxidase) (Day 41, LDD 0.95): 208 ng/mL and 228 ng/mL and 285 ng/mL
SGOT (Serum Glutamic-Oxaloacetic Transaminase) (Day 41, LDD 1.86): 85.8 µg/mL and 93.9 µg/mL and 71.1 µg/mL
TPO (Thromboproletin) (Day 41, LDD 2.66): 38 ng/mL and 32.4 ng/mL and 36.1 ng/mL
SAP (Setrum Amtyloid P) (Day 41, LDD 5.4): 47.9 µg/mL and 38.6 µg/mL and 46 µg/mL
MIP-2 (Macrophage Inflammatory Protein-2) (Day 41, LDD 7.174): 25.9 pg/mL and 23.4 pg/mL and 19.7 pg/mL
MCP-1 (Monocyte Chemoattractant Protein-1) (Day 41, LDD 16.924): 71.9 pg/mL and 53.1 pg/mL and 74.8 pg/mL
VCAM-1 (Vescular Cell Adhesion Molecule-1) (Day 41, LDD 19): 1840 ng/mL and 1940 ng/mL and 2390 ng/mL
MDC (Macrophage-Derived Chemokine) (Day 41, LDD 21.85): 1350 pg/mL and 1110 pg/mL and 1290 pg/mL
MCP-3 (Monocyte Chemoattractant Protein-3) (Day 41, LDD 31.36): 197 pg/mL and 115 pg/mL and 132 pg/mL
